Entries after “also recorded” stand apart in the source; their conditions may differ.
Legend:
[1] = test system: MLS 128 (IgG) anti-Tn monoclonal antibody; format: binding, mouse
[2] = test system: MLS128 mAb; format: binding, mouse
[3] = test system: Tn3G6K(Biot)G glycopeptide; design: species or system BALB/c mice; details: mouse, in vivo
[4] = test system: STTG6K(Biot)G peptide; design: species or system BALB/c mice; details: mouse, in vivo
[5] = test system: human Jurkat tumor cell line; details: in vivo
[6] = test system: T cell hybridoma 45G10 specific for PV; format: cell-based
[7] = test system: T cell hybridomas 45G10 (specific for 103-115 poliovirus peptide); format: cell-based
[8] = test system: lymph node (LN) cells; design: species or system BALB/c mice; details: mouse, in vivo, sc
[9] = test system: Tn antigen (BT-TT1); design: species or system BALB/c mice; details: mouse, in vivo

Question: (S*T*T*G)2KLFAVWKITYKDT [Tn6-PV] was tested. Which “recognition of the Tn motif by the MLS 128 mAb, direct ELISA” value (from here on “recognition of the Tn motif”) [1] did it give?
Answer: efficiently recognized

Question: What about the “inhibition of MLS128 binding to Tn3G6K(Biot)G” value [2] of the same substance?
Answer: significant enhancement of the antigenicity

Question: And the “anti-Tn IgG antibodies” value [3]?
Answer: induced anti-Tn IgG antibodies

Question: What about the “anti-Tn IgM antibodies” value [3] of the same substance?
Answer: detected

Question: And the “sera binding to unglycosylated STTG6K(Biot)G peptide” value [4]?
Answer: No sera binding was observed

Question: What about the “binding of sera to Jurkat cells” value [5] of the same substance?
Answer: bound this human cell line

Question: And the “recognition of Jurkat cells / antibody production relative to Tn3-PV” value [5]?
Answer: better; also recorded: significant benefit

Question: And the “increase of antigenicity of the T cell epitope compared to unglycosylated PV peptide” value [6]?
Answer: ~100 fold

Question: What about the “stimulation of the 45G10 T cell hybrid” value [6] of the same substance?
Answer: stimulate

Question: How did the “recognition by PV-specific T-cell hybridoma” value [7] turn out when KLFAVWKITYKDT [PV, reference compound] was run?
Answer: recognize

Question: What about the “proliferative T response specific for the T epitope” value [8] of the same substance?
Answer: induce in vivo a proliferative T response

Question: What about the “recognition of the Tn motif” value [1] of the same substance?
Answer: are not

Question: What about the “induction of anti-Tn antibodies” value [9] of the same substance?
Answer: not

Question: What about the “anti-Tn IgG antibodies” value [3] of the same substance?
Answer: no Tn specific antibodies were detected

Question: And the “sera binding to unglycosylated STTG6K(Biot)G peptide” value [4]?
Answer: No sera binding was observed

Question: What about the “stimulation of the 45G10 T cell hybrid” value [6] of the same substance?
Answer: stimulate

Question: S*T*T*QYIKANSKIGITEL [Tn3-TT] was tested. Which “recognition of the Tn motif” value [1] did it give?
Answer: efficiently recognized

Question: And the “inhibition of MLS128 binding to Tn3G6K(Biot)G” value [2]?
Answer: only slightly affected

Question: How did the “competition with a-OSM for MLS 128 binding” value [2] turn out when “STTGGGGGGKG [STTG6KG, reference compound]” was run?
Answer: does not

Question: With αGalNac-Ser [B] as the substance, how does the “stimulation of IL-2 production by the T hybridoma” value [7] read?
Answer: do not stimulate
